Assays:
[1] = system: hairs in the telogenic phase; assay: Test on the rabbit: hair growth after topical application; type: in vivo; conditions: 1% solution in the same excipient as the Arnica montana extract
Procedure: Male rabbits aged at least 12 weeks and identical in age, in order for the hairs of these animals to be in the telogenic phase, which can be confirmed by shearing the animals, are used.
The test products are dissolved in pure ethanol in the proportion of a concentration of 25% (w/v). This solution is then diluted 1/10 with sweet almond oil. A concentration of active product of 2.5% is then obtained.
0.2 ml of these solutions are deposited on a gauze applied to the skin and a control, obtained by preparing the same solvent as that which was used to dissolve the active principles, is also deposited. The products and the control are left in contact with the skin for 15 minutes and then the gauze is removed. The treatment is carried out for 2 days at the rate of three applications per day at intervals of four hours.
The difference between the mean time taken by the hairs to grow on the treated parts and the control parts is subsequently evaluated.
(§1) A solution comprising 1% of pure commercial parthenolide (Aldrich, ref. 38,428-3) and a solution comprising 1% of pure commercial cnicin (Extrasynthese, ref. 8725) are prepared in the same excipient as the Arnica montana extract and are subjected to the test on the rabbit.

hairs of C57/B16 mouse = assay: Tests on the C57/B16 mouse: hair growth after topical application; type: in vivo; conditions: section on the C57/B16 mouse; 1% solution in the same excipient as the Arnica montana extract
Procedure: Female mice aged 5 weeks, all identical, are used. The mice are […] on the back, so as to render the hairs unnoticeable.
0.2 ml of one of each product in the same solvent as for the test on the rabbits and at the same concentration is deposited on the backs of the mice.
A test is thus carried out by comparison between different mice, in contrast to the test on the rabbit, where the same animal represents its own control.
The product is deposited on the back, without using gauze, once daily for 5 days in a row. […] They become visible on the second day of treatment to reach approximately 1 mm from the third day, whereas the hairs begin to grow on the control mice only from the third week after the beginning of the treatment.
as §1

In the case of `C=C1C(=O)O[C@@H]2/C=C(\CO)CC/C=C(\C)C[C@H](OC(=O)C(=C)[C@@H](O)CO)[C@@H]12` [cnicin], the “growth of the hairs compared with the Arnica extract” value [1] is reported as “approximately two times worse” and the “growth of the hairs compared with the 2.5% Arnica extract” value (hairs of C57/B16 mouse) is reported as “approximately two times worse”.

Reference: patent US20040115289A1, “Cosmetic or medicinal composition containing sesquiterpene lactone or the like for treating hair -growth related disorders, and preparation method” (priority 2000, published 2004)
